The record followed here is US20220090096A1 (priority 2019, published 2022).

Series [1] deals with catP reporter (Chloramphenicol Acetyl Transferase, CAT). Format: cell-based, Clostridium sporogenes NCIMB 10696.
For a further series, the system named is C. sporogenes. Format: cell-based, Clostridium sporogenes. The note with it: theophylline 0.1-10 mM supplemented at time zero. The protocol:
For growth experiments, pre-cultures grown for 12 hours were diluted to a starting OD600 of 0.01 with fresh medium containing different concentrations of the inducer theophylline (0-10 mM). Because theophylline is dissolved in DMSO, appropriate quantities of DMSO were added to all the cultures to account for any effect DMSO might have on growth.

Another series has as its system Clostridium sporogenes. The format is in vitro ADME. The following applies: 2 mM in TYG medium; up to 20 hours. The protocol: To analyse if C. sporogenes consumes theophylline, 12 hour cultures were diluted to a staring OD600 of 0.01. At an OD600 of ≈0.5 cultures were induced with 2 mM theophylline. 1 mL samples were taken immediately and then at 2, 4, 6, 8, 10 and 20 hours after supplementation of theophylline. Samples were centrifuged for 10 min and 10000×g. Supernatants were used to determine the concentration of theophylline using an Alliance HT 2795 HPLC (Waters corporation) coupled to a Micromass Quattro LC Mass Spectrometer (Waters Wilmslow) in positive mode from m/z 70 to 500 for all samples at a scan rate of 1 cycle/s and equipped with an electrospray source. The general parameters were as follows: capillary voltage 2000 V, sampling cone 30 V, source temperature 130° C., desolvation temperature 350° C., cone gas flow 64 L/h and desolvation gas flow 621 L/h.
Prior to ionization, chromatographic separation was achieved using a Supelco Ascentis Express HPLC column (100 mm×3 mm, 2.7 μM, Sigma Aldrich). The mobile phase consisted of (A) water with 0.1% v/v formic acid and (B) methanol with 0.1% v/v formic acid. […]
As requisite of a good inducer, it was ascertained that theophylline is not metabolized by Clostridium sporogenes. […] The concentration of theophylline was monitored by HPLC/MS (high-performance liquid chromatography-mass spectrometry) analysis of cell-free supernatant samples over time.

On to `Cn1c(=O)c2[nH]cnc2n(C)c1=O` [theophylline], for which, in series [1], the “dose dependency of gene expression” value is “higher levels of gene expression”. Also, the “concentrations resulting in a reduction of growth” value in the series with C. sporogenes was “higher than 5 mM”. Also, the “concentration of theophylline in cell-free supernatant over time” value in the series with Clostridium sporogenes is recorded as “remains constant”.
